Assay results published in ChEMBL document CHEMBL4373715, “Discovery and Biological Evaluations of Halogenated 2,4-Diphenyl Indeno[1,2-b]pyridinol Derivatives as Potent Topoisomerase IIα-Targeted Chemotherapeutic Agents for Breast Cancer” (J Med Chem, 2019).

Legend:
[1] = biological target: T1, DNA topoisomerase 1 (Homo sapiens) (UniProt P11387); assay: Inhibition of recombinant human topoisomerase 1-mediated relaxation of supercoiled pBR322 DNA at 100 uM measured after 30 mins by ethidium bromide staining based agarose gel electrophoresis relative to control
T1 sequence (whole entry): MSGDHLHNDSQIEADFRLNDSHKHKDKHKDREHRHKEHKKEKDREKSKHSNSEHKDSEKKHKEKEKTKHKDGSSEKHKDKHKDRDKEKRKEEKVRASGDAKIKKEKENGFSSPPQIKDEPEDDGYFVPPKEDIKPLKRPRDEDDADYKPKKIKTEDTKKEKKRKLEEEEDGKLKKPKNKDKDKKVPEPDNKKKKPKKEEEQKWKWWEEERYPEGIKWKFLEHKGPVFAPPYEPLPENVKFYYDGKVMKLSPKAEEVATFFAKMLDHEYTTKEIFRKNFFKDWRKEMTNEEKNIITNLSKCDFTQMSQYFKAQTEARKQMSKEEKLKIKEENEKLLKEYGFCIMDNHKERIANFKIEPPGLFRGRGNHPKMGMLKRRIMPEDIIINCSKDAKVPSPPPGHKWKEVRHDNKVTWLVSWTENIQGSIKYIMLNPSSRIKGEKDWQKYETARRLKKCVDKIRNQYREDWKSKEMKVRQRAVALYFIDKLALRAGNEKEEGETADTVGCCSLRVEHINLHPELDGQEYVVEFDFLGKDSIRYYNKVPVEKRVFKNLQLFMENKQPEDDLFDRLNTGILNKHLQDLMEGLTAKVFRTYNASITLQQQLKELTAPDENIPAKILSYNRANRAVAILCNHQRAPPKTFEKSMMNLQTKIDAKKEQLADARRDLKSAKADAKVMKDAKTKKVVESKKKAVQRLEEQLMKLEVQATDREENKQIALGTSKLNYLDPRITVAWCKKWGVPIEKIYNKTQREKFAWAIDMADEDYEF

DU-145 = assay: Antiproliferative activity against human DU145 cells measured after 72 hrs by EZ-Cytox assay; format: functional, cell-based; conditions: DU-145, 72 h
T47D = assay: Antiproliferative activity against human T47D cells measured after 72 hrs by EZ-Cytox assay; format: functional, cell-based
HeLa = assay: Antiproliferative activity against human HeLa cells measured after 72 hrs by EZ-Cytox assay; format: functional, cell-based
HCT-15 = assay: Antiproliferative activity against human HCT15 cells measured after 72 hrs by EZ-Cytox assay; format: functional, cell-based; conditions: HCT-15, 72 h
[2] = biological target: DNA topoisomerase 2-alpha (Homo sapiens) (UniProt P11388); assay: Inhibition of recombinant human topoisomerase 2alpha-mediated relaxation of supercoiled pBR322 DNA at 20 uM measured after 30 mins by ethidium bromide staining based agarose gel electrophoresis relative to control
[3] = biological target: DNA topoisomerase 2-alpha (Homo sapiens) (UniProt P11388); assay: Inhibition of recombinant human topoisomerase 2alpha-mediated relaxation of supercoiled pBR322 DNA at 100 uM measured after 30 mins by ethidium bromide staining based agarose gel electrophoresis relative to control

Sequence of DNA topoisomerase 2-alpha (Homo sapiens) (P11388 whole entry): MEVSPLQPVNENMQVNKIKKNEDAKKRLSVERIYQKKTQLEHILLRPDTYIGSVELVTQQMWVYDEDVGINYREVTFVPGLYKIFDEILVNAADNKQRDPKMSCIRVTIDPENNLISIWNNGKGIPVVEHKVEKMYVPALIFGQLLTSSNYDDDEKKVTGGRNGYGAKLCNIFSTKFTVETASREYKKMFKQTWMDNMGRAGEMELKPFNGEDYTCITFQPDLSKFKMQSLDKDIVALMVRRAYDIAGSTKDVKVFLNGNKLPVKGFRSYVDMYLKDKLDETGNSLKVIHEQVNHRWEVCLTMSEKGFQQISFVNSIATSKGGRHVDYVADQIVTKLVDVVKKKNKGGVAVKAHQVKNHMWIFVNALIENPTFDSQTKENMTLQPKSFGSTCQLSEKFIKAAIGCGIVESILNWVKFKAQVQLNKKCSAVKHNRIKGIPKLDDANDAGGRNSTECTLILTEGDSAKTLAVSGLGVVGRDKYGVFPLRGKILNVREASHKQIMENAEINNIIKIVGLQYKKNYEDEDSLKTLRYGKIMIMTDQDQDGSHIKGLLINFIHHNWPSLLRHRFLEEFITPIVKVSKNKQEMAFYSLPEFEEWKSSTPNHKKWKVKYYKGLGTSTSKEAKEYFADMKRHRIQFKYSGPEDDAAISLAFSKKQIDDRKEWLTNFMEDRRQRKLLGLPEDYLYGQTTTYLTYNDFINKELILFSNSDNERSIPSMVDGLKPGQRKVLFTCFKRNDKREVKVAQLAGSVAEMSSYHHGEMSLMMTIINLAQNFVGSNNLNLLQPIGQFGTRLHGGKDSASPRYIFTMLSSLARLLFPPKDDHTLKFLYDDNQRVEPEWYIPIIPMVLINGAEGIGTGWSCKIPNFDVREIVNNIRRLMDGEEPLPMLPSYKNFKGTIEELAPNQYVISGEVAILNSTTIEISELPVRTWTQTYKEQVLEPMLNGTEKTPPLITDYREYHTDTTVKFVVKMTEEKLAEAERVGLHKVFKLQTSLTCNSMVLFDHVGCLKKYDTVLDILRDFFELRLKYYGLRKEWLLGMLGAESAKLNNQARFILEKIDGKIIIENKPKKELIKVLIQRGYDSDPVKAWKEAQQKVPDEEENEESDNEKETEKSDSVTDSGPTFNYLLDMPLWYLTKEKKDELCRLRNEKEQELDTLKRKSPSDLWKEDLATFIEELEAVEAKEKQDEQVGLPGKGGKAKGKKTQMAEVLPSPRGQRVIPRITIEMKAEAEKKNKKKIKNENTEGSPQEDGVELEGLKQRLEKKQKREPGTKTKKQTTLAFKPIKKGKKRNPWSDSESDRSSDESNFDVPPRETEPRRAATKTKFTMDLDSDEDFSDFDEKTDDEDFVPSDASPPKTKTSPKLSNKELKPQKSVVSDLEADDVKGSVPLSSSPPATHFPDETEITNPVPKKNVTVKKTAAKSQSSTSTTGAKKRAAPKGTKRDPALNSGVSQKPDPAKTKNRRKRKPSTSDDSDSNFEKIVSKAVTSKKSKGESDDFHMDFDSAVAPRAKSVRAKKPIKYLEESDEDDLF

Row | Compound | inhibition [1] | IC50 (DU-145) | IC50 (T47D) | IC50 (HeLa) | IC50 (HCT-15) | inhibition [2] | inhibition [3]
1 | Oc1cccc(-c2cc(-c3cccc(Cl)c3)nc3c2Cc2cccc(O)c2-3)c1 | 16.9% | 3480 nM | 1630 nM | 4590 nM | 2490 nM | 3.4% | 88.6%
2 | Oc1cccc(-c2cc(-c3ccccc3F)nc3c2Cc2cc(O)ccc2-3)c1 | 9.1% | 1620 nM | 2240 nM | 3980 nM | 3580 nM | 4.9% | 44.6%
3 | Oc1ccc2c(c1)-c1nc(-c3ccc(C(F)(F)F)cc3)cc(-c3ccccc3O)c1C2 | 0% | 2800 nM | 670 nM | 2230 nM | 3250 nM | 3% | 100%
4 | Oc1ccccc1-c1cc(-c2ccc(F)cc2)nc2c1Cc1cccc(O)c1-2 | 0% | 1400 nM | 740 nM | 3080 nM | 2070 nM | 0% | 34.4%
5 | Oc1ccc(-c2cc(-c3ccc(Cl)cc3)nc3c2Cc2c(O)cccc2-3)cc1 | 6.7% | 1880 nM | 1150 nM | 4080 nM | 3000 nM | 0% | 59.9%
6 | Oc1ccccc1-c1cc(-c2cccc(C(F)(F)F)c2)nc2c1Cc1c(O)cccc1-2 | 0.3% | 1870 nM | 770 nM | 4250 nM | 3340 nM | 5.3% | 94.2%
7 | Oc1cccc(-c2cc(-c3ccccc3Cl)nc3c2Cc2ccc(O)cc2-3)c1 | 3.9% | 570 nM | 550 nM | > 50000 nM | 3040 nM | 38.3% | 88.7%
8 | Oc1ccccc1-c1cc(-c2ccc(C(F)(F)F)cc2)nc2c1Cc1cccc(O)c1-2 | 13.6% | 4500 nM | 4200 nM | 5240 nM | 3490 nM | 0.9% | 92.2%
9 | Oc1ccccc1-c1cc(-c2ccccc2)nc2c1Cc1cccc(O)c1-2 | 0.1% | 170 nM | 2440 nM | 2950 nM | 1360 nM | 0.1% | 95.8%
10 | Oc1ccccc1-c1cc(-c2ccc(Cl)cc2)nc2c1Cc1cccc(O)c1-2 | 0% | 550 nM | 2410 nM | 5310 nM | 1230 nM | 25.3% | 83.9%
11 | Oc1cccc(-c2cc(-c3ccc(Cl)cc3)c3c(n2)-c2ccc(O)cc2C3)c1 | 2.1% | > 50000 nM | > 50000 nM | > 50000 nM | > 50000 nM | 6.2% | 74.3%
12 | Oc1ccccc1-c1cc(-c2cccc(Cl)c2)nc2c1Cc1cccc(O)c1-2 | 13.1% | 220 nM | 960 nM | 3620 nM | 1310 nM | 3.2% | 80%
13 | Oc1cccc(-c2cc(-c3ccccc3Cl)nc3c2Cc2c(O)cccc2-3)c1 | 0% | 920 nM | 1530 nM | 590 nM | 800 nM | 24.9% | 100%
14 | Oc1ccc2c(c1)Cc1c(-c3ccccc3O)cc(-c3cccc(C(F)(F)F)c3)nc1-2 | 0% | 1720 nM | 700 nM | 3100 nM | 3890 nM | 4.1% | 85.4%
15 | Oc1cccc(-c2cc(-c3cccc(F)c3)nc3c2Cc2ccc(O)cc2-3)c1 | 17.1% | 2170 nM | 540 nM | 3450 nM | 1190 nM | 4.9% | 44.2%
16 | Oc1ccc(-c2cc(-c3ccccc3Cl)nc3c2Cc2cc(O)ccc2-3)cc1 | 7.6% | 430 nM | 1870 nM | 700 nM | 1850 nM | 53.6% | 86.6%
17 | Oc1cccc(-c2cc(-c3ccc(Cl)cc3)nc3c2Cc2cccc(O)c2-3)c1 | 7.4% | 360 nM | 3500 nM | 6740 nM | 3050 nM | 26.5% | 85.2%

Row | Compound | inhibition [1] | IC50 (DU-145) | IC50 (T47D) | IC50 (HeLa) | IC50 (HCT-15) | inhibition [2] | inhibition [3]
18 | Oc1ccc(-c2cc(-c3ccccc3Cl)nc3c2Cc2cccc(O)c2-3)cc1 | 0% | 190 nM | 610 nM | 2850 nM | 2970 nM | 3.6% | 30.3%
19 | Oc1ccccc1-c1cc(-c2ccccc2Cl)c2c(n1)-c1cccc(O)c1C2 | 23.7% | 4030 nM | 3030 nM | 4590 nM | 4120 nM | 1.8% | 79.2%
20 | Oc1ccccc1-c1cc(-c2ccccc2Cl)nc2c1Cc1cccc(O)c1-2 | 13.4% | 290 nM | 870 nM | 1120 nM | 3170 nM | 3.7% | 80.9%
21 | Oc1ccc(-c2cc(-c3ccc(Cl)cc3)c3c(n2)-c2ccc(O)cc2C3)cc1 | 7.7% | 1430 nM | 1510 nM | 6830 nM | 18500 nM | 8.9% | 98.1%
22 | Oc1ccc(-c2cc(-c3cccc(C(F)(F)F)c3)nc3c2Cc2c(O)cccc2-3)cc1 | 9.4% | 1750 nM | 1230 nM | 4570 nM | 2620 nM | 0% | 84.4%
23 | Oc1ccc(-c2cc(-c3ccccc3)c3c(n2)-c2ccc(O)cc2C3)cc1 | 8.8% | 710 nM | 730 nM | 2670 nM | 1270 nM | 8.3% | 42.8%
24 | Oc1cccc(-c2cc(-c3ccc(F)cc3)nc3c2Cc2cc(O)ccc2-3)c1 | 22.3% | 2940 nM | 1720 nM | 3740 nM | 1920 nM | 28.7% | 65.1%
25 | Oc1cccc2c1Cc1c(-c3ccccc3)cc(-c3ccccc3)nc1-2 | 4.6% | 2710 nM | 1770 nM | 4180 nM | 3390 nM | 1.3% | 75.7%
26 | Oc1cccc(-c2cc(-c3ccc(Cl)cc3)nc3c2Cc2ccc(O)cc2-3)c1 | 16.7% | 4430 nM | 3500 nM | 1730 nM | 860 nM | 51.9% | 87.8%
27 | Oc1ccc(-c2cc(-c3ccc(Cl)cc3)nc3c2Cc2ccc(O)cc2-3)cc1 | 0% | 2250 nM | 1150 nM | 1730 nM | 3220 nM | 0% | 74.5%
28 | Oc1ccc(-c2cc(-c3cccc(Cl)c3)nc3c2Cc2ccc(O)cc2-3)cc1 | 8.7% | 480 nM | 600 nM | > 50000 nM | 2360 nM | 56.4% | 71.3%
29 | Oc1cccc(-c2cc(-c3ccccc3F)nc3c2Cc2c(O)cccc2-3)c1 | 9.7% | 2030 nM | 2710 nM | 6750 nM | 4980 nM | – | 22.4%
30 | Oc1cccc(-c2cc(-c3ccc(F)cc3)nc3c2Cc2cccc(O)c2-3)c1 | 2.3% | 3300 nM | 2240 nM | 8810 nM | 4040 nM | – | 27.3%
31 | Oc1ccc(-c2cc(-c3cccc(F)c3)nc3c2Cc2ccc(O)cc2-3)cc1 | 3% | 4830 nM | 700 nM | 8630 nM | 4490 nM | – | 6.2%
32 | Oc1ccc2c(c1)Cc1c(-c3ccccc3O)cc(-c3ccc(F)cc3)nc1-2 | 0% | 4760 nM | 3140 nM | 14300 nM | 4610 nM | – | 6%
33 | Oc1cccc(-c2cc(-c3ccccc3)c3c(n2)-c2cc(O)ccc2C3)c1 | 0% | 420 nM | > 50000 nM | > 50000 nM | > 50000 nM | – | 3.5%
34 | Oc1ccccc1-c1cc(-c2cccc(F)c2)nc2c1Cc1cccc(O)c1-2 | 0% | 9970 nM | 740 nM | 7900 nM | 5030 nM | – | 8.4%
